Read-outs that look alike come from different tables or passages of the source.
Columns and labels:
Experiment in all cases: In vitro analysis of drugs (MTT cell viability)
SK-BR-3 cancer cells = format: cell-based; conditions: read-out: IC50 ± SD (nM) SK-BR3 (Breast)
Description: (§1) The drugs (compounds D1-D6, D21, D25, D27, D28, D35-D37, D46, D47, D48, D49 and controls DXd, FL118 and SN38) were evaluated on NCI-N87, MDA-MB-468, SK-BR-3, HCT116, and JIMT-1 cancer cells. The cancer cells were seeded in 96-well plates at a density of 2,000 to 5,000 cells per well in 100 µL of medium and cultured for 22 to 26 hours. The series of compound was diluted by serial dilution of 1:4˜1:8 from 2 μM to 1 pM with DMSO. The diluted drugs were added to triplicate wells of 96-well plates at 50 μL per well. All assays were performed, by repeating up to 3 times and the results were obtained in up to 3 independent experiments. The plates were incubated for 6 days at 37° C. in a humidified 5% CO2-in-air atmosphere. Cell viability was determined by the MTT assay. The 15 μL of 3-(4,5-dimethylthiazol-2-yl)-2,5-diphenyltetrazolium bromide (MTT) dye dissolved in PBS buffer solution (5 mg/mL) was added to each well of the plates. The formazans formed by reduction of the MTT dye by mitochondrial oxidoreductases in the living cells were dissolved in DMSO, the formazans measured using the absorbance at 550 nm. IC50 (half maximal inhibitory concentration) was generated using a sigmoidal dose-response nonlinear regression curve fit (GraphPad software Inc.).

MDA-MB-468 cancer cells = format: cell-based; conditions: read-out: IC50 ± SD (nM) MDA-MB-468 (TNBC)
Description: as §1

NCI-N87 cancer cells = format: cell-based, human; conditions: read-out: IC50 ± SD (nM) NCI-N87 (Gastric)
Description: as §1

[1] = Homo sapiens, MDA-MB-468, 144 h
[2] = Drugs, expression level 21.8 × 10^5, 6 days, MTT
[3] = Drugs, expression level 0.003 × 10^5, 6 days, MTT
[4] = Drugs, expression level 13.2 × 10^5, 6 days, MTT

Row | Compound | IC50 (SK-BR-3 cancer cells; Homo sapiens, SK-BR-3, 144 h) | IC50 (MDA-MB-468 cancer cells; [1]) | IC50 (NCI-N87 cancer cells; Homo sapiens, NCI-N87, 144 h) | IC50 (SK-BR-3 cancer cells; [2]) | IC50 (MDA-MB-468 cancer cells; [3]) | IC50 (NCI-N87 cancer cells; [4])
1 | CC[C@@]1(O)C(=O)OCc2c1cc1n(c2=O)Cc2c-1nc1cc3c(cc1c2-c1ccc(O)cc1)OCO3 [Compound D21] | 0.61 ± 0.03 nM | 0.38 ± 0.14 nM | 1.49 ± 0.53 nM | – | – | –
2 | CC[C@@]1(O)C(=O)OCc2c1cc1n(c2=O)Cc2c-1nc1cc(F)c(O)c3c1c2C(O)CC3 (some centres unmarked) [Compound D25] | 2.81 ± 0.43 nM | 4.49 ± 0.76 nM | 27.6 ± 8.26 nM | – | – | –
3 | CC[C@@]1(O)C(=O)OCc2c1cc1n(c2=O)Cc2c-1nc1cc(F)c(O)cc1c2-c1ccco1 [Compound D27] | 1.79 ± 0.34 nM | 0.86 ± 0.11 nM | 6.52 ± 0.45 nM | – | – | –
4 | CC[C@@]1(O)C(=O)OCc2c1cc1n(c2=O)Cc2c-1nc1cc(F)c(O)cc1c2-c1ccoc1 [Compound D28] | 5.31 ± 0.55 nM | 2.45 ± 0.37 nM | 12.7 ± 4.2 nM | – | – | –
5 | CC[C@@]1(O)C(=O)OCc2c1cc1n(c2=O)Cc2c-1nc1cc3c(cc1c2CCc1ccc(O)cc1)OCO3 [Compound D35] | – | 1.71 nM | 5.57 nM | – | – | –
6 | CC[C@@]1(O)C(=O)OCc2c1cc1n(c2=O)Cc2c-1nc1cc3c(cc1c2-c1cccc(O)c1)OCO3 [Compound D36] | 0.91 ± 0.13 nM | 0.52 ± 0.29 nM | 1.19 ± 0.02 nM | – | – | –
7 | CC[C@@]1(O)C(=O)OCc2c1cc1n(c2=O)Cc2c-1nc1cc(F)c(C)cc1c2-c1ccc(O)cc1 [Compound D37] | 0.89 ± 0.06 nM | 0.36 ± 0.23 nM | 1.19 ± 0.25 nM | – | – | –
8 | CC[C@@]1(O)C(=O)OCc2c1cc1n(c2=O)Cc2c-1nc1cc(F)c(C)c3c1c2[C@@H](NCc1ccc(O)cc1)CC3 [Compound D46] | 1.73 ± 0.19 nM | 0.92 ± 0.12 nM | 2.2 ± 0.13 nM | – | – | –
9 | CC[C@@]1(O)C(=O)OCc2c1cc1n(c2=O)Cc2c-1nc1cc(F)c(C)c3c1c2[C@@H](NCCc1ccc(O)cc1)CC3 [Compound D47] | 1.8 nM | 0.96 nM | 2.13 nM | – | – | –
10 | CC[C@@]1(O)C(=O)OCc2c1cc1n(c2=O)Cc2c-1nc1cc(F)c(C)c3c1c2[C@@H](NC(=O)C(C)(O)C(F)(F)F)CC3 (some centres unmarked) [Compound D48] | 1.06 ± 0.15 nM | 0.4 ± 0.11 nM | 1.59 ± 0.09 nM | – | – | –
11 | CC[C@@]1(O)C(=O)OCc2c1cc1n(c2=O)Cc2c-1nc1cc(F)c(C)c3c1c2[C@@H](NC(=O)Cc1ccc(O)cc1)CC3 [Compound D49] | 1.79 ± 0.24 nM | 0.83 ± 0.01 nM | 6.11 ± 0.19 nM | – | – | –
12 | CC[C@@]1(O)C(=O)OCc2c1cc1n(c2=O)Cc2c-1nc1cc(F)c(C)c3c1c2[C@@H](NC(=O)CO)CC3 [DXd, reference compound] | – | – | – | 1.87 ± 0.49 nM | 0.82 ± 0.3 nM | 7.12 ± 1.75 nM
13 | CC[C@@]1(O)C(=O)OCc2c1cc1n(c2=O)Cc2cc3cc4c(cc3nc2-1)OCO4 [FL118, reference compound] | – | – | – | 0.86 ± 0.1 nM | 0.37 ± 0.17 nM | 1.04 ± 0.18 nM
14 | CCc1c2c(nc3ccc(O)cc13)-c1cc3c(c(=O)n1C2)COC(=O)[C@]3(O)CC [SN38, reference compound] | – | – | – | 1.82 ± 1.21 nM | 0.68 ± 0.14 nM | 6.52 ± 1.55 nM
